Calls of active or inactive are those of the source. The calls are words filed in the database; no cut-off is given here.

In one data set the target is Carbonic anhydrase 1 (Homo sapiens, UniProt P00915). The experiment in a line: Inhibition of human full-length cytosolic CA1 after 6 hrs by stopped flow CO2 hydration assay.
The target in another data set is Carbonic anhydrase 12 (Homo sapiens, UniProt O43570). The data set can be described thus: Inhibition of human recombinant CA12 after 6 hrs by stopped flow CO2 hydration assay.
Chain of Carbonic anhydrase 12 (O43570 whole entry): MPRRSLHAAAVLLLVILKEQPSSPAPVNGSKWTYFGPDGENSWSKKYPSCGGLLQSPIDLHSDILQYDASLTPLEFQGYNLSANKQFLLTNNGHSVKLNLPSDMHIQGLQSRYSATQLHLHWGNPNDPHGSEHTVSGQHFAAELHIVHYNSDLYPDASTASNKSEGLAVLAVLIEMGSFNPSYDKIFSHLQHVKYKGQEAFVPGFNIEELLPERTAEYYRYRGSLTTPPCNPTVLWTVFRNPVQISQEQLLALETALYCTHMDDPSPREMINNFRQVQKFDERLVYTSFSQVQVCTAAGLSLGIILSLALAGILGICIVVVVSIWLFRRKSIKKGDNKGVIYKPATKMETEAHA
The target in the next data set is Carbonic anhydrase 2 (Homo sapiens, UniProt P00918). The data set can be described thus: Inhibition of human full-length cytosolic CA2 after 6 hrs by stopped flow CO2 hydration assay.
Another data set addresses Carbonic anhydrase 9 (Homo sapiens, UniProt Q16790). The experiment in a line: Inhibition of human recombinant CA9 after 6 hrs by stopped flow CO2 hydration assay.
A further data set relates to 4T1. The data set can be described thus: Anticancer activity against mouse 4T1 cells expressing CA9 xenografted in BALB/c mouse assessed as tumor growth inhibition at 30 mg/kg, iv administered on days 11,13,16 and 19.
For data set [1], the system named is Mus musculus. The data set can be described thus: Toxicity in mouse 4T1 cells expressing […] xenografted BALB/c mouse assessed as mortality at 30 mg/kg, iv administered on days 11,13,16 and 19. The data set is classed as organism-based. The arrangement: dose 30 mg/kg, route intravenous. The following applies: in vivo.
Data set [2] concerns Mus musculus. The experiment in a line: Toxicity in mouse 4T1 cells expressing CA9 xenografted BALB/c mouse assessed as weight loss at 30 mg/kg, iv administered on days 11,13,16 and 19. Conditions: in vivo.

Chain of Carbonic anhydrase 1 (P00915 whole entry): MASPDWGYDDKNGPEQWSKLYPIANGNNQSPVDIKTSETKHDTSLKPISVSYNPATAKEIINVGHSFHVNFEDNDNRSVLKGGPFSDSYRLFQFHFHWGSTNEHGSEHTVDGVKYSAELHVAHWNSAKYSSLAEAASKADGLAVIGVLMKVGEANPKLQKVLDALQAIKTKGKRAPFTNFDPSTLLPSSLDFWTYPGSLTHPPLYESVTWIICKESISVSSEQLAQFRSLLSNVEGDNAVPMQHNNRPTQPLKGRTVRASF

In general, Ki refers to the equilibrium dissociation constant of an inhibitor or competing ligand from its target. With `Cc1cc(=O)oc2cc(O)ccc12` [HYMECROMONE], the Ki on Carbonic anhydrase 1 is greater than 100000 nM; at Carbonic anhydrase 12 it was 8100 nM; on Carbonic anhydrase 2 it was greater than 100000 nM; on Carbonic anhydrase 9, 560 nM.

As to `Cc1cc(=O)oc2cc(O[C@@H]3O[C@@H](C)[C@H](O)[C@@H](O)[C@H]3O)ccc12`, the Ki is greater than 100000 nM on Carbonic anhydrase 1, 184 nM on Carbonic anhydrase 12, greater than 100000 nM on Carbonic anhydrase 2 and 201 nM at Carbonic anhydrase 9.

For `Cc1cc(=O)oc2cc(O[C@H]3O[C@H](CO)[C@@H](O)[C@H](O)[C@@H]3O)ccc12`, the Ki on Carbonic anhydrase 1 is greater than 100000 nM; on Carbonic anhydrase 12 it was 43 nM; on Carbonic anhydrase 2 it was greater than 100000 nM; at Carbonic anhydrase 9, 9.2 nM. In addition, the “growth inhibition (GI)” value in the data set with 4T1 is “Active”. Moreover, the Activity result in the data set with Mus musculus [1] and in the data set on Mus musculus [2] was “Non-toxic” in each case.

With `Cc1cc(=O)oc2cc(O[C@@H]3O[C@H](CO)[C@@H](O)[C@H](O)[C@H]3O)ccc12`, the Ki was 1000 nM at Carbonic anhydrase 1, 54 nM at Carbonic anhydrase 12, greater than 100000 nM on Carbonic anhydrase 2 and 370 nM at Carbonic anhydrase 9.

Consider `Cc1cc(=O)oc2cc(O[C@@H]3O[C@H](CO)[C@H](O)[C@H](O)[C@H]3O)ccc12`, for which the inhibition constant Ki came to 590 nM on Carbonic anhydrase 1, 8.5 nM on Carbonic anhydrase 12, 77000 nM at Carbonic anhydrase 2 and 93 nM at Carbonic anhydrase 9.

Turning to `Cc1cc(=O)oc2cc(O[C@@H]3O[C@H](CO[C@H]4O[C@H](CO)[C@H](O)[C@H](O)[C@H]4O)[C@@H](O)[C@H](O)[C@H]3O)ccc12`, the Ki turned out to be 880 nM at Carbonic anhydrase 1, 101 nM at Carbonic anhydrase 12, 590 nM at Carbonic anhydrase 2 and 820 nM on Carbonic anhydrase 9.

The record behind these values is ChEMBL document CHEMBL1938342 (J Med Chem, 2011).
